Where two headings read alike, the source gives them in different places.
Key:
[1] = In vitro human serum protein binding; assay type: in vitro ADME; details: human
Excerpt: (§1) The results from in vitro and in vivo nonclinical PK/PD studies, the human PK data collected in the Phase 1 Study, and human plasma binding data were used to determine human therapeutic doses required for PK/PD target attainment.

human serum protein = test: In vitro human serum protein binding; assay type: in vitro ADME
Excerpt: as §1

[2] = Human pharmacokinetic and PK/PD target attainment estimates; assay type: in vivo
Excerpt: as §1

[3] = Stability of aqueous solutions of combination formulation at pH 5.0; assay type: physicochemical; details: pH 5.0 at 25° C., 24 hours
[4] = Polymorph and hydrate screen: physical stability of solid forms (AAC, drying); assay type: physicochemical; details: 40° C. and 75% RH for 2 days
Method: The solids obtained from the various crystallization experiments were analyzed by High Throughput XRPD (HT-XRPD). If relevant, the mother liquors were allowed to evaporate completely, and the remaining solids were analyzed by HT-XRPD. Subsequently, all solids were exposed to accelerated aging conditions for 48 hours at 40° C. and 75% RH (AAC).
From the polymorph screen, four novel diffractograms were identified in addition to the two known forms of Compound 1-dihydrochloride, Form 1 and Form 2. Form 1 was the most abundant solid form found in this polymorph screen. The novel diffractograms were designated Forms 3, 4, 5 and 6. All these forms were found with low frequency and were poorly crystalline. […] The HT-XRPD patterns of the new Forms 3, 4, 5 and 6 are shown in FIG. 12, FIG. 13, FIG. 14, and FIG. 15, respectively.
After completion of the equilibration time, the remaining solids were analyzed by HT-XRPD dry under ambient conditions and dried under vacuum. The mother liquors were analyzed by Karl Fisher titration for water content determination. […] The solutions from these experiments were evaporated under vacuum (200 mBar) and the obtained dried solids analyzed by HT-XRPD. All the solids were then exposed to 40° C. and 75% RH for two days.

[5] = Dynamic vapor sorption analysis; assay type: physicochemical; details: 25° C.
Method: Differences in hygroscopicity (moisture uptake) of the various forms of a solid material provided a measure of their relative stability at increasing relative humidity. Moisture sorption isotherms of small samples were obtained using a DVS-1 system from Surface Measurement Systems (London, UK); this instrument is suitable for use with as little as a few milligrams of sample, with an accuracy of 0.1 μg. The following humidity profile was applied: The relative humidity was cycled from 45% to 95% (sorption), back to 0% (desorption) and to 45%, at a constant temperature of 25° C. […] Weight equilibration per step was set with a minimum holding time of 1 hour. At the end of the DVS experiments, the recovered solid material was measured by HT-XRPD. Compound 1-dihydrochloride monohydrate was analyzed by dynamic vapor sorption (FIG. 6). The material was subjected to an isothermal desorption/sorption profile starting at 45%-95%-0%-45% relative humidity levels (step 5% at low relative humidity (RH)) at 25° C. The temperature was maintained constant at approximately 25° C. for the duration of the experiment. […] It can be seen that the mass uptake is rather small and that at high humidity level Compound 1-dihydrochloride remained as Form 1. This is confirmed by the mass stability and the VH-XRPD experiment conducted (see FIG. 7). […]

[6] = Physical stability of Compound 1-dihydrochloride at four temperature/RH conditions; assay type: physicochemical; details: four temperature/RH conditions, 4 weeks
Method: A physical stability study of Compound 1-dihydrochloride (mixture of Form 1 and Form 2) was conducted. A solid sample of Compound 1-dihydrochloride was incubated under four relative humidity and temperature conditions: 5° C./ambient RH, 25° C./60% RH, 30° C./65% RH and 40° C./75% RH. At regular intervals, the compound was analyzed by HR-XRPD and TGMS. […] The water content is in line with the monohydrate nature of Compound 1-dihydrochloride Form 1. The TGMS analyses recorded for the 2 weeks and 1-month incubation is also along the 3.8% of water (1 molecule of water per molecule of API).

DSC analysis of Form 1 = assay type: physicochemical; details: DSC trace
Method: Melting properties were obtained from DSC thermograms, recorded with a heat flux DSC822e instrument (Mettler-Toledo GmbH, Switzerland). The DSC822e was calibrated for temperature and enthalpy with a small piece of indium (melting point at 156.6 C; ΔHf=28.45 J·g−1). Samples were sealed in standard 40 μl aluminum pans, pin-holed and heated in the DSC from 25° C. to 300° C., at a heating rate of 10° C. min-1. Dry N2 gas, at a flow rate of 50 ml min−1 was used to purge the DSC equipment during measurement.
This event corresponds to the onset of dehydration of the monohydrate. This dehydration process is followed by the decomposition of the compound at about 290° C. signaled by a large endothermic event. It is concluded from this experiment that Form 1 is stable to elevated temperature, up to approximately 50° C.

[7] = Aqueous solubility as a function of pH (phosphate buffers, HPLC-UV); assay type: physicochemical; details: aqueous buffer, thermodynamic from solid; for solubility at 4 h: read-out: Conc. (mg/ml) 4 hours; for solubility thermodynamic at 24 h: read-out: Conc. (mg/ml) 24 hours
Method: A known amount of Compound 1 was weighed directly into 5 ml vials and 1 ml of each phosphate buffer was added; the solutions obtained were kept at controlled temperature (25° C.) and magnetically stirred up to 24 hours. Aliquots of obtained suspensions or solutions were centrifuged (14000 rpm 10 minutes) and withdrawn at two predefined time points (4 hours and 24 hours) appropriately diluted and analyzed by HPLC-UV using the analytical method parameters summarized in the Table 9.

[8] = Variable humidity XRPD analysis; assay type: physicochemical; details: VH-XRPD, sorption; dihydrochloride
Method: To confirm the hypothesis of a solid form change between 40% and 0% relative humidity levels a variable humidity XRPD (VH-XRPD) analysis was performed. The sample was subjected to a humidity profile of 45-75-20-15-10-30-35-45% relative humidity levels at 30° C. At each step, two diffractograms were recorded. The first diffractogram was recorded when the target humidity was reached and the second after the sample had equilibrated for 1 hour at each humidity level. […] The most intense peaks of Form 1 (dihydrochloride monohydrate) are in the range between 9.5 and 24.5° 2θ.
The measured RH level and the kind of ongoing RH variation step (sorption or desorption) is found on the right hand side. […] Upon desorption, the material was converted between 20% and 15% relative humidity to Form 2, the anhydrous form. Upon sorption, Form 2 converted back to Form 1 between 30% and 35% relative humidity.

Which fraction unbound [1] does the source give for `NCCN[C@H]1CC[C@H](CC(=O)N[C@H]2Cc3cccc(C(=O)O)c3OB2O)CC1` [Compound 1, (R)-3-(2-(trans-4-(2-aminoethylamino)cyclohexyl)acetamido)-2-hydroxy-3,4-dihydro-2H-benzo[e][1,2]oxaborinine-8-carboxylic acid] here?
The fraction unbound was 0.63.

And the free fraction (human serum protein)?
Its free fraction is 63%.

And the “Total AUC0-24” value ([2]; Dose Level 250 (q8 hr))?
The value was 123 µg·h/mL.

What about the fAUC0-24 ([2]; Dose Level 250 (q8 hr)) of the same compound?
Its fAUC0-24 is 77 µg·h/mL.

And the “Total AUC0-24” value ([2]; Dose Level 500 (q8 hr))?
Its value is 248 µg·h/mL.

And the fAUC0-24 ([2]; Dose Level 500 (q8 hr))?
Its fAUC0-24 is 156 µg·h/mL.

What about the “% present, Compound 1” value [3] of the same compound?
Its value is 100%.

What about the “Physical stability upon exposure to AAC” value [4] of the same compound?
Its value is “Stable”.

For `Cl.Cl.NCCN[C@H]1CC[C@H](CC(=O)N[C@H]2Cc3cccc(C(=O)O)c3OB2O)CC1` [Form 1, (R)-3-(2-(trans-4-(2-aminoethylamino)cyclohexyl)acetamido)-2-hydroxy-3,4-dihydro-2H-benzo[e][1,2]oxaborinine-8-carboxylic acid dihydrochloride], which “Mass uptake on exposure to increasing relative humidity” value ([5]; DVS sorption 45% RH to 95%) is on record?
Its value is “rather small”.

And the “Mass loss on desorption” value ([5]; DVS, exposure to 10, 5, and 0% RH, transformation to Form 2)?
The value was “approximately 4%”.

What about the “Physical stability and hygroscopicity under the tested conditions” value [6] of the same compound?
Its value is “physically stable and non-hygroscopic”.

And the “Temperature up to which the form is stable (onset of dehydration)” value (DSC analysis of Form 1)?
Its value is “approximately 50 °C”.

What about the solubility at 4 h ([7]; Phosphate Buffer pH 4, pH (4 h) 3.9, 25° C.) of the same compound?
Its solubility at 4 h is greater than 143 mg/mL.

And the solubility thermodynamic at 24 h ([7]; Phosphate Buffer pH 4, pH (24 h) 3.9, 25° C.)?
The solubility thermodynamic at 24 h was 133 mg/mL.

And the solubility at 4 h ([7]; Phosphate Buffer pH 5, pH (4 h) 4.9, 25° C.)?
Its solubility at 4 h is greater than 135 mg/mL.

What about the solubility thermodynamic at 24 h ([7]; Phosphate Buffer pH 5, pH (24 h) 4.9, 25° C.) of the same compound?
Its solubility thermodynamic at 24 h is 107 mg/mL.

And the solubility at 4 h ([7]; Phosphate Buffer pH 6, pH (4 h) 6.2, 25° C.)?
The solubility at 4 h was greater than 135 mg/mL.

And the solubility thermodynamic at 24 h ([7]; Phosphate Buffer pH 6, pH (24 h) 6.2, 25° C.)?
The solubility thermodynamic at 24 h was 102 mg/mL.

What about the solubility at 4 h ([7]; Phosphate Buffer pH 7, pH (4 h) 7.1, 25° C.) of the same compound?
The solubility at 4 h was greater than 133 mg/mL.

And the solubility thermodynamic at 24 h ([7]; Phosphate Buffer pH 7, pH (24 h) 7.0, 25° C.)?
Its solubility thermodynamic at 24 h is 87.8 mg/mL.

What about the solubility at 4 h ([7]; Phosphate Buffer pH 8, pH (4 h) 8.1, 25° C.) of the same compound?
Its solubility at 4 h is greater than 127 mg/mL.

What about the solubility thermodynamic at 24 h ([7]; Phosphate Buffer pH 8, pH (24 h) 8.1, 25° C.) of the same compound?
The solubility thermodynamic at 24 h was 68.3 mg/mL.

And the solubility at 4 h ([7]; Phosphate Buffer pH 9, pH (4 h) 8.7, 25° C.)?
Its solubility at 4 h is greater than 109 mg/mL.

And the solubility thermodynamic at 24 h ([7]; Phosphate Buffer pH 9, pH (24 h) 8.9, 25° C.)?
The solubility thermodynamic at 24 h was 61.4 mg/mL.

Which “Relative humidity at which Form 2 converts to Form 1” value [8] does the source give for `Cl.Cl.NCCN[C@H]1CC[C@H](CC(=O)N[C@H]2Cc3cccc(C(=O)O)c3OB2O)CC1` [Form 2, (R)-3-(2-(trans-4-(2-aminoethylamino)cyclohexyl)acetamido)-2-hydroxy-3,4-dihydro-2H-benzo[e][1,2]oxaborinine-8-carboxylic acid dihydrochloride] here?
Its value is 25-35 % RH.
